Assay results: ChEMBL document CHEMBL4308841, “Synthesis, in vitro antiproliferative activity, and kinase inhibitory effects of pyrazole-containing diarylureas and diarylamides” (Eur J Med Chem, 2018)

Key:
UACC-257 = test: Growth inhibition of human UACC257 cells assessed as cell growth at 100 uM incubated for 48 hrs by sulforhodamine B assay relative to control; format: functional; conditions: UACC-257, 48 h, read-out: Activity
NCI-H23 = test: Growth inhibition of human NCI-H23 cells incubated for 48 hrs by sulforhodamine B assay; format: functional, cell-based; conditions: NCI-H23, 48 h
SF-539 = test: Growth inhibition of human SF539 cells incubated for 48 hrs by sulforhodamine B assay; format: functional, cell-based; conditions: SF-539, 48 h
OVCAR-3 [1] = test: Growth inhibition of human OVCAR3 cells assessed as cell growth at 0.01 uM incubated for 48 hrs by sulforhodamine B assay relative to control; format: functional; conditions: OVCAR-3, 48 h, read-out: Activity
MCF7 = test: Growth inhibition of human MCF7 cells incubated for 48 hrs by sulforhodamine B assay; format: functional, cell-based; conditions: MCF7, 48 h
UO-31 [2] = test: Growth inhibition of human UO31 cells incubated for 48 hrs by sulforhodamine B assay; format: functional, cell-based; conditions: UO-31, 48 h
SF-295 = test: Growth inhibition of human SF295 cells assessed as cell growth at 0.01 uM incubated for 48 hrs by sulforhodamine B assay relative to control; format: functional; conditions: SF-295, 48 h, read-out: Activity
RPMI-8226 = test: Growth inhibition of human RPMI8226 cells assessed as cell growth at 1 uM incubated for 48 hrs by sulforhodamine B assay relative to control; format: functional; conditions: RPMI-8226, 48 h, read-out: Activity
Malme-3M [3] = test: Growth inhibition of human MALME-3M cells assessed as cell growth at 100 uM incubated for 48 hrs by sulforhodamine B assay relative to control; format: functional; conditions: read-out: Activity
Malme-3M [4] = test: Growth inhibition of human MALME-3M cells assessed as cell growth at 0.01 uM incubated for 48 hrs by sulforhodamine B assay relative to control; format: functional; conditions: read-out: Activity
SK-MEL-2 [5] = test: Growth inhibition of human SK-MEL-2 cells assessed as cell growth at 100 uM incubated for 48 hrs by sulforhodamine B assay relative to control; format: functional; conditions: SK-MEL-2, 48 h, read-out: Activity
OVCAR-5 = test: Growth inhibition of human OVCAR5 cells assessed as cell growth at 0.01 uM incubated for 48 hrs by sulforhodamine B assay relative to control; format: functional; conditions: OVCAR-5, 48 h, read-out: Activity
HCT-116 = test: Growth inhibition of human HCT116 cells assessed as cell growth at 0.1 uM incubated for 48 hrs by sulforhodamine B assay relative to control; format: functional; conditions: HCT-116, 48 h, read-out: Activity
MDA-MB-231 [6] = test: Growth inhibition of human MDA-MB-231 cells assessed as cell growth at 0.01 uM incubated for 48 hrs by sulforhodamine B assay relative to control; format: functional; conditions: MDA-MB-231, 48 h, read-out: Activity
ACHN = test: Growth inhibition of human ACHN cells assessed as cell growth at 1 uM incubated for 48 hrs by sulforhodamine B assay relative to control; format: functional; conditions: read-out: Activity
SK-MEL-2 [7] = test: Growth inhibition of human SK-MEL-2 cells incubated for 48 hrs by sulforhodamine B assay; format: functional, cell-based; conditions: SK-MEL-2, 48 h
MDA-MB-231 [8] = test: Growth inhibition of human MDA-MB-231 cells assessed as cell growth at 0.1 uM incubated for 48 hrs by sulforhodamine B assay relative to control; format: functional; conditions: MDA-MB-231, 48 h, read-out: Activity
A549 = test: Growth inhibition of human A549/ATCC cells assessed as cell growth at 100 uM incubated for 48 hrs by sulforhodamine B assay relative to control; format: functional; conditions: A549, 48 h, read-out: Activity
PC-3 = test: Growth inhibition of human PC3 cells assessed as cell growth at 0.1 uM incubated for 48 hrs by sulforhodamine B assay relative to control; format: functional; conditions: PC-3, 48 h, read-out: Activity
CCRF-CEM = test: Growth inhibition of human CCRF-CEM cells assessed as cell growth at 100 uM incubated for 48 hrs by sulforhodamine B assay relative to control; format: functional; conditions: read-out: Activity
SK-MEL-2 [9] = test: Growth inhibition of human SK-MEL-2 cells assessed as cell growth at 0.1 uM incubated for 48 hrs by sulforhodamine B assay relative to control; format: functional; conditions: SK-MEL-2, 48 h, read-out: Activity
HCT-15 = test: Growth inhibition of human HCT15 cells incubated for 48 hrs by sulforhodamine B assay; format: functional, cell-based; conditions: HCT-15, 48 h
SK-MEL-28 = test: Growth inhibition of human SK-MEL-28 cells incubated for 48 hrs by sulforhodamine B assay; format: functional, cell-based; conditions: SK-MEL-28, 48 h
UO-31 [10] = test: Growth inhibition of human UO31 cells assessed as cell growth at 0.1 uM incubated for 48 hrs by sulforhodamine B assay relative to control; format: functional; conditions: UO-31, 48 h, read-out: Activity
HOP-62 = test: Growth inhibition of human HOP62 cells incubated for 48 hrs by sulforhodamine B assay; format: functional, cell-based; conditions: HOP-62, 48 h
Hs-578T = test: Growth inhibition of human Hs578T cells assessed as cell growth at 0.1 uM incubated for 48 hrs by sulforhodamine B assay relative to control; format: functional; conditions: read-out: Activity
OVCAR-3 [11] = test: Growth inhibition of human OVCAR3 cells assessed as cell growth at 1 uM incubated for 48 hrs by sulforhodamine B assay relative to control; format: functional; conditions: OVCAR-3, 48 h, read-out: Activity
MDA-MB-435 = test: Growth inhibition of human MDA-MB-435 cells assessed as cell growth at 100 uM incubated for 48 hrs by sulforhodamine B assay relative to control; format: functional; conditions: MDA-MB-435, 48 h, read-out: Activity
[12] = read-out: LC50 (the source's name)
[13] = read-out: pLC50 (the source's name) (converted)

## COc1cc(Cl)cc(-c2nn(-c3cccc(NC(=O)Nc4cc(C(F)(F)F)cc(C(F)(F)F)c4)c3)cc2-c2ccncc2)c1
UACC-257
  growth at 100 µM: -88%
NCI-H23
  IC50: 0.33 µM
NCI-H23; read-out: GI50
  GI50: 0.328 µM
NCI-H23; read-out: LC50
  LC50: 0.05 µM
NCI-H23; read-out: TGI
  TGI: 1.6 µM
NCI-H23; read-out: pGI50 (converted)
  GI50: 0.331 µM
NCI-H23; read-out: pLC50 (converted)
  LC50: 50.1 µM
NCI-H23; read-out: pTGI (converted)
  TGI: 1.58 µM
SF-539
  IC50: 1.41 µM
SF-539; [12]
  CC50: 0.055 µM
SF-539; read-out: TGI
  TGI: 3.49 µM
SF-539; read-out: pGI50 (converted)
  GI50: 1.41 µM
SF-539; [13]
  CC50: 8.71 µM
SF-539; read-out: pTGI (converted)
  TGI: 3.55 µM
OVCAR-3 [1]
  growth at 0.01 µM: 105%
MCF7
  IC50: 0.38 µM
MCF7; read-out: GI50
  GI50: 0.354 µM
MCF7; read-out: LC50
  LC50: > 100 µM
MCF7; read-out: TGI
  TGI: 9.32 µM
MCF7; read-out: pGI50 (converted)
  GI50: 0.38 µM
MCF7; read-out: pLC50 (converted)
  LC50: > 100 µM
MCF7; read-out: pTGI (converted)
  TGI: 9.33 µM
UO-31 [2]
  IC50: 0.26 µM
UO-31 [2]; read-out: GI50
  GI50: 0.254 µM
UO-31 [2]; [12]
  CC50: 0.0597 µM
UO-31 [2]; read-out: TGI
  TGI: 1.58 µM
UO-31 [2]; read-out: pGI50 (converted)
  GI50: 0.263 µM
UO-31 [2]; [13]
  CC50: 6.92 µM
UO-31 [2]; read-out: pTGI (converted)
  TGI: 1.58 µM
SF-295
  growth at 0.01 µM: 95%
RPMI-8226
  growth at 1 µM: -12%
Malme-3M [3]
  growth at 100 µM: -39%
Malme-3M [4]
  growth at 0.01 µM: 92%
SK-MEL-2 [5]
  growth at 100 µM: -83%
OVCAR-5
  growth at 0.01 µM: 99%
HCT-116
  growth at 0.1 µM: 97%
MDA-MB-231 [6]
  growth at 0.01 µM: 97%
ACHN
  growth at 1 µM: 17%
SK-MEL-2 [7]
  IC50: 0.66 µM
SK-MEL-2 [7]; read-out: GI50
  GI50: 0.658 µM
SK-MEL-2 [7]; read-out: TGI
  TGI: 2.7 µM
SK-MEL-2 [7]; read-out: pGI50 (converted)
  GI50: 0.661 µM
SK-MEL-2 [7]; [13]
  CC50: 9.33 µM
SK-MEL-2 [7]; read-out: pTGI (converted)
  TGI: 2.69 µM
MDA-MB-231 [8]
  growth at 0.1 µM: 90%
A549
  growth at 100 µM: -68%
PC-3
  growth at 0.1 µM: 91%
CCRF-CEM
  growth at 100 µM: -29%
SK-MEL-2 [9]
  growth at 0.1 µM: 95%
HCT-15
  IC50: 0.35 µM
HCT-15; read-out: GI50
  GI50: 0.352 µM
HCT-15; read-out: TGI
  TGI: 2.25 µM
HCT-15; read-out: pGI50 (converted)
  GI50: 0.355 µM
HCT-15; [13]
  CC50: 74.1 µM
HCT-15; read-out: pTGI (converted)
  TGI: 2.82 µM
SK-MEL-28
  IC50: 0.9 µM
SK-MEL-28; read-out: GI50
  GI50: 0.9 µM
SK-MEL-28; read-out: TGI
  TGI: 4.93 µM
SK-MEL-28; read-out: pGI50 (converted)
  GI50: 0.891 µM
SK-MEL-28; [13]
  CC50: 69.2 µM
SK-MEL-28; read-out: pTGI (converted)
  TGI: 4.9 µM
UO-31 [10]
  growth at 0.1 µM: 75%
HOP-62
  IC50: 0.65 µM
HOP-62; read-out: GI50
  GI50: 0.648 µM
HOP-62; [12]
  CC50: 7.14 µM
HOP-62; read-out: TGI
  TGI: 2.39 µM
HOP-62; read-out: pGI50 (converted)
  GI50: 0.646 µM
HOP-62; [13]
  CC50: 7.08 µM
HOP-62; read-out: pTGI (converted)
  TGI: 2.4 µM
Hs-578T
  growth at 0.1 µM: 95%
OVCAR-3 [11]
  growth at 1 µM: 5%
MDA-MB-435
  growth at 100 µM: -81%
